{"source": "patent US10918645B2", "about": "(LIFEARC, priority 2016, dated 2021)", "key": {"JAK2 [1]": {"molecular_target": "T1, JAK2 (Homo sapiens (Human), UniProt O60674)", "test": "LANCE Kinase Assay (JAK2_IC50 selectivity assay)", "assay_type": "biochemical", "source_text": "In LANCE® Kinase Assay (JAK2_IC50 selectivity assay): JAK2 (Invitrogen, Cat. No PV4288), ATP (Sigma, Cat. No. A7699-1G), DMSO (Sigma, Cat. No. D2650), DTT (Sigma, Cat. No. 43815), LANCE Ultra ULight™-JAK-1 peptide (Perkin Elmer, Cat. No. TRF0121), LANCE Eu-W1024 Anti-phosphotyrosine (PT66) (Perkin Elmer, Cat. No. AD0069), LANCE™ Detection Buffer (Perkin Elmer, Cat. No. CR97-100), Tofacitinib (PharmaBlock Sciences(Nanjing), Inc, Cat. No. PBN2011586-01); Equipments: Envision (Perkin Elmer), Bravo (Agilent); Consumables: 384 well Intermediate plate (Greiner, Cat. No. 781280), 384 well assay plate (Perkin Elmer, Cat. No. 6007299),\nThe assay involves two steps, the enzymatic step and the detection step with HTRF reagents. Step 1: During the enzymatic step the substrate-biotin is incubated with the kinase of interest. ATP is added to start the reaction. Step 2: The detection reagent catches the phosphorylated substrate and the resulting TR-FRET is proportional to the phosphorylation level.\nCompound Preparation: Dissolve the test compounds into 30 mM DMSO solution and put them in nitrogen hood at room temperature for long term storage; Dilute the 30 mM compound in DMSO with 3-fold factor, total 11 concentrations; Aspirate 1 μl compound and then dilute them in 25 folds with kinase buffer. Mix well and balance 30 minutes at room temperature.\nKinase Reaction: Transfer 2.5 μl compounds in kinase buffer (4×) into assay plate by Agilent Bravo. Spin the plate; Transfer 5 μl enzyme mixture into the assay plate by using Eppendorf electronic multi-channel pipette. Spin the plate; Incubate the assay plate for 20 minutes at room temperature (23° C.); Add 2.5 μl kinase buffer with ATP into the assay plate by using Multidrop. Spin and seal the plate; Incubate the assay plate for 90 minutes at room temperature (23° C.).\nStop Reaction: Transfer 10 μl detection reagent (2 nM LANCE Eu-W1024 Anti-phosphotyrosine) into the assay plate by using Eppendorf electronic multi-channel pipette. Spin and seal the plate; Incubate the assay plate at room temperature (23° C.) for 60 minutes.\nDetection and Read: The excitation wavelength is 340 nm, the primary emission wavelength is 615 nm and the secondary emission wavelength is 665 nm (for Cryptate and Ulight, respectively). Read the plate with EnVision to get the readout of both wavelengths; Calculate the ratio of 665 nm/615 nm.\n(§1) IC50 estimates were obtained using the software XLfit (IDBS Inc.)."}, "JAK2 [2]": {"molecular_target": "T1, JAK2", "test": "JAK2 kinase selectivity assay (33P panel)", "assay_type": "biochemical", "details": "1 μM inhibitor concentration", "description": "JAK2 (5-20 mU diluted in 50 mM Tris pH 7.5, 0.1 mM EGTA, 0.05% 0-mercaptoethanol, 1 mg/ml BSA) is assayed against PDKtide ([…]-[…]) in a final volume of 25.5 μl containing 50 mM Tris pH 7.5, 0.1 mM EGTA, 0.05% 0-mercaptoethanol, 100 μM substrate peptide, 10 mM magnesium acetate and 0.005 mM [33P-γ-ATP] (50-1000 cpm/pmole) and incubated for 30 min at room temperature Assays are stopped by addition of 5 μl of 0.5 M (3%) orthophosphoric acid and then harvested onto P81 Unifilter plates with a wash buffer of 50 mM orthophosphoric acid."}, "LRRK2 G2019S": {"molecular_target": "LRRK2 G2019S (Homo sapiens (Human), UniProt Q5S007, G2019S)", "sequence (Q5S007 970-2527 G2019S)": "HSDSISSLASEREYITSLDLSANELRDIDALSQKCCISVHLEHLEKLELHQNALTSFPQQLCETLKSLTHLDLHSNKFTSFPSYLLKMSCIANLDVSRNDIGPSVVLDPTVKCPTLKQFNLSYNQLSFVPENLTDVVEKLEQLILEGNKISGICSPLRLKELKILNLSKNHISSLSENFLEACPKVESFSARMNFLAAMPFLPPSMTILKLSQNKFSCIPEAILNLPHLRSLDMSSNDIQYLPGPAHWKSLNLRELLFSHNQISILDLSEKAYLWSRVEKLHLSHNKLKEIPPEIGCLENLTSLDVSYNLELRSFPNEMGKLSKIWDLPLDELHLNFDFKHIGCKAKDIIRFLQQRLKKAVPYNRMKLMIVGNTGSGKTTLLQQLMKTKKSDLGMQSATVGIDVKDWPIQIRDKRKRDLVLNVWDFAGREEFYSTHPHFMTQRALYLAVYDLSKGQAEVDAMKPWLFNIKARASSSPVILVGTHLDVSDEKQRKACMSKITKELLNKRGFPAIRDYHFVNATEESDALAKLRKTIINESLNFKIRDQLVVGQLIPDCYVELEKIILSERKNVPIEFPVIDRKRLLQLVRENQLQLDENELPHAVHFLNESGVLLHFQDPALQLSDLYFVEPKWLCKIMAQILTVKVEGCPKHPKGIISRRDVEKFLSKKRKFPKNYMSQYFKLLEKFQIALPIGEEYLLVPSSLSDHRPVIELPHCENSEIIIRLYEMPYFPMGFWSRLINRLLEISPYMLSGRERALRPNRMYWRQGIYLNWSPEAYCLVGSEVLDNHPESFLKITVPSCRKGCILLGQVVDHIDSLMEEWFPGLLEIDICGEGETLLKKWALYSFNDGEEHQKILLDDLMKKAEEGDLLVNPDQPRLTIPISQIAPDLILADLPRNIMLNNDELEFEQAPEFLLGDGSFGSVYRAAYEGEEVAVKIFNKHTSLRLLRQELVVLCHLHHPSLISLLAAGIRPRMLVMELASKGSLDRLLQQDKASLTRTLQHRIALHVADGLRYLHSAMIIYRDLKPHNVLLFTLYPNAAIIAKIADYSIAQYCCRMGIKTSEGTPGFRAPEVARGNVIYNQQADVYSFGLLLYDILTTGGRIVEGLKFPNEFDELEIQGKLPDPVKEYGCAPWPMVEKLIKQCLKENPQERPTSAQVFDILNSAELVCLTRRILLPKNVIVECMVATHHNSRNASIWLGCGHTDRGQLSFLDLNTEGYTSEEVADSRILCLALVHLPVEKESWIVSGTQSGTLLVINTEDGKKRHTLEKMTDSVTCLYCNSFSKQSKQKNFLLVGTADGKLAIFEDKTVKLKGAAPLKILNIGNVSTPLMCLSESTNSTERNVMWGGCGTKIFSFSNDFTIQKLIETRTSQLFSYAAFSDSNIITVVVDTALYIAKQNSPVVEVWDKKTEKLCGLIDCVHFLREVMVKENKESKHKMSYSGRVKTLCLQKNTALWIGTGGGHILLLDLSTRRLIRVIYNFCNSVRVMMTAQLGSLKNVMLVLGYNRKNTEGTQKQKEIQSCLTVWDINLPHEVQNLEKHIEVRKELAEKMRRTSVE", "test": "Adapta Kinase Assay (LRRK2_IC50 assay)", "assay_type": "biochemical", "details": "inhibition of LRRK2 G2019S", "description": "In Adapta™ Kinase Assay (LRRK2_IC50 assay): the Kinase Reaction Buffer contained 5× Kinase Buffer S (Life Technologies, PV5213) and 2 mM DTT (Life Technologies, P2325).\nThe Adapta® universal kinase assay is a homogenous, fluorescent based immunoassay for the detection of ADP. In contrast to ATP depletion assays, the Adapta® assay is extremely sensitive to ADP formation such that a majority of the signal change occurs in the first 10-20% conversion of ATP to ADP. This makes the Adapta® universal kinase assay ideally suited for use with low activity kinases.\nPrepare a 1× solution of kinase reaction buffer from the 5× Kinase Buffer S stock (listed above) by adding 2 ml of 5× stock to 8 ml of H2O to make 10 ml of 1× kinase reaction buffer. To this, add 20 μl of 1 M DTT.\nKinase reactions are performed in a 10 μl volume in low-volume 384-well plates. […] Other non—treated assay plates, while not tested, may also be suitable. The concentration of substrate in the assay is 100 μM, and the 1× kinase reaction buffer consists of 50 mM Tris-HCl pH8.5, 10 mM MgCl2, 1 mM EGTA, 0.01% Brij-35, and 2 mM DTT, plus any additional additives that may be required for a specific kinase. […] The plate is allowed to equilibrate at room temperature for at least 30 minutes before being read on a plate reader configured for Adapta™ TR-FRET.\nThe data presented in this document were generated using a BMG LABTECH PHERAstar plate reader using the appropriate filters and instrument settings for Adapta™. The Test Compounds are screened in 1% DMSO (final) in the well. For 8 point titrations, 5-fold serial dilutions are conducted from the starting concentration.\nas §1"}, "[3]": {"test_system": "transgenic Drosophila expressing LRRK2-G2019S in dopamine (DA) neurons", "test": "Drosophila model climbing assay (negative geotaxis)", "assay_type": "in vivo", "details": "significance compared to DMSO negative control", "source_text": "Drosophila model was used to evaluate Examples in vivo. The GAL4/UAS system developed by Andrea Brand and Norbert Perrimon in 1993 [45] was used to generate transgenic Drosophila expressing LRRK2-G2019S in dopamine (DA) neurons. The system has two parts: the GAL4 gene, encoding the yeast transcription activator protein GAL4, and the UAS (Upstream Activation Sequence), an enhancer to which GAL4 specifically binds to activate gene transcription. This system takes advantage of the yeast GAL4 transcription factor, which binds specifically to the UAS.\nTo express LRRK2-G2019S in DA neurons, the UAS-Wild Type-LRRK2 and UAS-G2019S-LRRK2 transgenes were combined with the dopa decarboxylase (ddc)-GAL4 driver. The 10 μM GW5074 was used for the positive control. The negative control group was DMSO control (all compounds were dissolved in DMSO with 1:1000 dillution). The Drosophila were maintained at 25° C. on a 12 hour light-12 hour dark cycle. GW5074 was used as positive control.\nThe negative geotaxis assay was used to analyse the locomotors ability of the Drosophila. Twenty Drosophila from each vial and 4 vials for each group were performed the climbing assay weekly.\nThe tested Drosophila were transferred into a vertical plastic tube (15 cm tall, 1.5 cm in diameter). After 30 min of rest at room temperature, the Drosophila were gently tapped to the bottom of the tube, the numbers of Drosophila that could climb to or above the test line within 10 seconds were counted and the percent were calculated.\nThe climbing abilities were analysed based on three separate experiments for each vial and the data were analysed by GraphPad PRISM® 6.0 software."}}, "data": [{"smiles": "CC(C)n1ncc2c1CN(C1CCN(C)CC1)c1nccc3[nH]nc-2c13", "note": "[Example 68]", "values": [{"measurement": "IC50", "setting": "JAK2 [1]", "value": 6.3, "unit": "µM"}]}, {"smiles": "c1cc2[nH]nc3c2c(n1)N(C1CCC1)CCC3", "note": "[Example 22, 6-cyclobutyl-6,7,8,9-tetrahydro-2H-1,2,5,6-tetraazabenzo[cd]azulene]", "values": [{"measurement": "percentage inhibition of JAK2", "setting": "JAK2 [2]", "value": 5, "unit": "percentage"}, {"measurement": "IC50", "setting": "JAK2 [1]", "value": 8.4, "unit": "µM"}]}, {"smiles": "c1cc2[nH]nc3c2c(n1)N(C1CCCC1)CCC3", "note": "[Example 23, 6-cyclopentyl-6,7,8,9-tetrahydro-2H-1,2,5,6-tetraazabenzo[cd]azulene]", "values": [{"measurement": "percentage inhibition of JAK2", "setting": "JAK2 [2]", "value": 12, "unit": "percentage"}]}, {"smiles": "CN1CCC(N2Cc3ccccc3-c3n[nH]c4ccnc2c34)CC1", "note": "[Example 55]", "values": [{"measurement": "IC50", "setting": "LRRK2 G2019S", "value": 0.05, "unit": "µM"}]}, {"smiles": "c1cc2[nH]nc3c2c(n1)N(C1CCOCC1)CCC3", "note": "[Example 29, 6-(tetrahydro-2H-pyran-4-yl)-6,7,8,9-tetrahydro-2H-1,2,5,6-tetraazabenzo[cd]azulene]", "values": [{"measurement": "IC50", "setting": "LRRK2 G2019S", "value": 0.15, "unit": "µM"}, {"measurement": "Climbing Assay 3 weeks", "setting": "[3]; 3 weeks", "value": "* (P < 0.05, compared to DMSO negative control)"}, {"measurement": "Climbing Assay 4 weeks", "setting": "[3]; 4 weeks", "value": "** (P < 0.01, compared to DMSO negative control)"}, {"measurement": "Climbing Assay 5 weeks", "setting": "[3]; 5 weeks", "value": "* (P < 0.05, compared to DMSO negative control)"}, {"measurement": "Climbing Assay 6 weeks", "setting": "[3]; 6 weeks", "value": "* (P < 0.05, compared to DMSO negative control)"}]}]}
